Data reported in patent EP0800503B1, “NOVEL TRIENOIC RETINOID COMPOUNDS AND METHODS” (LIGAND PHARMACEUTICALS, INC., priority 1994, dated 1996).
Like-named read-outs stand apart in the source and are kept apart here.

Columns and labels:
TPA induction of ODC = experiment: Ornithine decarboxylase (ODC) assay, inhibition of TPA induction of ODC; type: cell-based; conditions: concentration required to inhibit the TPA induction of ODC by 80 percent
RPMI 8226 cell line [1] = experiment: Incorporation of 3H-thymidine; type: cell-based; conditions: Homo sapiens, 96 hours, radiolabeled thymidine incorporation, read-out: TdR IC50
RPMI 8226 cell line [2] = experiment: Viability (tetrazolium dye, MTS); type: cell-based; conditions: Homo sapiens, 96 hours, mitochondrial function / viability
ME 180 cell line [3] = experiment: Incorporation of 3H-thymidine; type: cell-based; conditions: Homo sapiens, 96 hours, radiolabeled thymidine incorporation, read-out: TdR IC50
ME 180 cell line [4] = experiment: Viability (tetrazolium dye, MTS); type: cell-based; conditions: Homo sapiens, 96 hours, mitochondrial function / viability
AML-193 cell line [5] = experiment: Viability (tetrazolium dye, MTS); type: cell-based; conditions: Homo sapiens, 96 hours, mitochondrial function / viability
AML-193 cell line [6] = experiment: Incorporation of 3H-thymidine; conditions: Homo sapiens, 96 h, read-out: TdR IC50 (nM)
RARα [7] = target: T1, RARα (Homo sapiens, UniProt P10276); experiment: Co-transfection assay; type: cell-based; conditions: read-out: RARα Pot
T1 sequence (P10276 1-462): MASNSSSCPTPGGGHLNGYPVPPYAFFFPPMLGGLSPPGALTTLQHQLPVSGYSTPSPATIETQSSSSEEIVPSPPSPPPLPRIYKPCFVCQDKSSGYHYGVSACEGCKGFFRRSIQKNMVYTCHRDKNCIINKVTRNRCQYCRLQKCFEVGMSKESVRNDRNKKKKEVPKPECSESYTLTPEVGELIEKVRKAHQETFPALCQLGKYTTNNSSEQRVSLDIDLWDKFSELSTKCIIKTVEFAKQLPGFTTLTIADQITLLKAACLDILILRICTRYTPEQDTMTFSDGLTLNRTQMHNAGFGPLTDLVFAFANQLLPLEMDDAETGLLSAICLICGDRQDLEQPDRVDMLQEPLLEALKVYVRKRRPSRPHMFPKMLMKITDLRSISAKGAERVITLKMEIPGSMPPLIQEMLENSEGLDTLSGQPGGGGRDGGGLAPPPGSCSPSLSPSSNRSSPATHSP

RARβ [8] = target: T2, RARβ (Homo sapiens, UniProt P10826); experiment: Co-transfection assay; type: cell-based; conditions: read-out: RARβ Pot
T2 sequence (P10826 1-448 isoform P10826-2): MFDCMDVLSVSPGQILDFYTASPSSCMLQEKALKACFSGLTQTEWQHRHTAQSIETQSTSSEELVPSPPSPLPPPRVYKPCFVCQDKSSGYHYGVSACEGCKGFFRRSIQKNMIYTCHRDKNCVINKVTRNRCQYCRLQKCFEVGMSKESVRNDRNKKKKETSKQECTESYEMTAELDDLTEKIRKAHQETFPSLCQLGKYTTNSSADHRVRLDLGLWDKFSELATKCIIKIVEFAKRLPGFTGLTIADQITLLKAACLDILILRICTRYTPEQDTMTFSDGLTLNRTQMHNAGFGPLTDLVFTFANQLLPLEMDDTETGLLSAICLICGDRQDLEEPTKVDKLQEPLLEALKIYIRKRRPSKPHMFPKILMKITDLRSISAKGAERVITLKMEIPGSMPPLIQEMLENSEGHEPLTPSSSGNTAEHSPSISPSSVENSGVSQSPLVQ

RXRα [9] = target: T3, RXRα (Homo sapiens, UniProt P19793); experiment: Co-transfection assay; type: cell-based; conditions: read-out: RXRα Pot
T3 sequence (P19793 1-462): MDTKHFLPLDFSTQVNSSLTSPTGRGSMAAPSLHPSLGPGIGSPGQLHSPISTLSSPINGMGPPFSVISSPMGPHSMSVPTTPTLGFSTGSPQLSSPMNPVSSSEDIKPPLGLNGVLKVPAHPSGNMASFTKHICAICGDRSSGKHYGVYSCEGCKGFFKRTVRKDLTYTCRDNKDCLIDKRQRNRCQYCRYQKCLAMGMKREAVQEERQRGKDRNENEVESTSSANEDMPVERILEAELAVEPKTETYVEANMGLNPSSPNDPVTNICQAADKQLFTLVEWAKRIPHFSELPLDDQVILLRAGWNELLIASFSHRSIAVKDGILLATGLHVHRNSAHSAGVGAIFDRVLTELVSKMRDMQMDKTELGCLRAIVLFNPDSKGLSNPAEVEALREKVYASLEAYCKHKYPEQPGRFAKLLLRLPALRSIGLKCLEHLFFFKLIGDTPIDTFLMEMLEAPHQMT

RXRγ [10] = target: T4, RXRγ (Mus musculus, UniProt P28705); experiment: Co-transfection assay; type: cell-based; conditions: read-out: RXRγ Pot
T4 sequence (P28705 1-463): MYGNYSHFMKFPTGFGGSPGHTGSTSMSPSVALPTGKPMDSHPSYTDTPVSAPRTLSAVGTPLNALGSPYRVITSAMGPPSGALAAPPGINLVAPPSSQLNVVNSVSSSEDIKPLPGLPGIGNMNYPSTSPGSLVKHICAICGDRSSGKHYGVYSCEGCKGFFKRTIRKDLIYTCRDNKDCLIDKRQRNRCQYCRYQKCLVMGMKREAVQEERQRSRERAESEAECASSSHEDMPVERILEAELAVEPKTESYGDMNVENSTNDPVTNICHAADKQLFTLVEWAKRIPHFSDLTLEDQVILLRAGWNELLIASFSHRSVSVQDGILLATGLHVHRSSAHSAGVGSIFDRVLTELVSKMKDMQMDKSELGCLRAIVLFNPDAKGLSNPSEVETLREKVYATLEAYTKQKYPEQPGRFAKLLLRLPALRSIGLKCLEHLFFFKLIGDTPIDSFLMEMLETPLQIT

RARα [11] = target: T1, RARα; experiment: Receptor binding (competition with tritiated retinoids); conditions: from IC50 by Cheng-Prussof equation
RXRα [12] = target: T3, RXRα; experiment: as above; conditions: from IC50 by Cheng-Prussof equation
RARβ [13] = target: T5, RARβ (Homo sapiens, UniProt P10826); experiment: biochemical
T5 sequence (P10826 1-455): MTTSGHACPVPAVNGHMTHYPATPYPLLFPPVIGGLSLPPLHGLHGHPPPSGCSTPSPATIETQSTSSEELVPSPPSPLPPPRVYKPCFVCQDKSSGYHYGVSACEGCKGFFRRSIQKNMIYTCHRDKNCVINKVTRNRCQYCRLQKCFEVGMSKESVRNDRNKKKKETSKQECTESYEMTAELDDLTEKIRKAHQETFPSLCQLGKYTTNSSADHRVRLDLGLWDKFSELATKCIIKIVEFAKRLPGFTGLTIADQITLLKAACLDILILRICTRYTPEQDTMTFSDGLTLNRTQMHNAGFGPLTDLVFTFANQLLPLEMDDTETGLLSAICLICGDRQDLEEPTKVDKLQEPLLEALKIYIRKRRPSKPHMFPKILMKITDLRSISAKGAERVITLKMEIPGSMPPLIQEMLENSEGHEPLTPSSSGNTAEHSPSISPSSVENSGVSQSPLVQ

RXRγ [14] = target: T4, RXRγ; experiment: biochemical

| Compound | IC80 (TPA induction of ODC) | IC50 (RPMI 8226 cell line [1]) | IC50 (RPMI 8226 cell line [2]) | IC50 (ME 180 cell line [3]) | IC50 (ME 180 cell line [4]) | IC50 (AML-193 cell line [5]) | IC50 (AML-193 cell line [6]) | EC50 (RARα [7]) | EC50 (RARβ [8]) | EC50 (RXRα [9]) | EC50 (RXRγ [10]) | Kd (RARα [11]) | Kd (RXRα [12]) | Kd (RARβ [13]) | Kd (RXRγ [14]) | EC50 (RARα [7]; CV-1 cells, pRShRARα, D-MTV-LUC reporter, 40 hours, potency = EC50) |
| --- | --- | --- | --- | --- | --- | --- | --- | --- | --- | --- | --- | --- | --- | --- | --- | --- |
| C/C(=C\c1ccc(C(=O)O)cc1)c1ccc2c(c1)C(C)(C)CCC2(C)C [TTNPB, (E)-4-[2-(5,6,7,8-tetrahydro-5,5,8,8-tetramethyl-2-napthalenyl)-1-propenyl]benzoic acid, reference compound] | 0.09 nM | 0.2 nM | 10 nM | 0.4 nM | 187 nM | 1000 nM | 0.1 nM |  |  |  |  |  |  |  |  |  |
| C/C(=C/C=C/C(C)=C/C(=O)O)c1cc(C(C)(C)C)cc(C(C)(C)C)c1 [Compound 10, (2E, 4E, 6Z)-7-(3,5-di-t-butylphenyl)-3-methylocta-2,4,6-trienoic acid] | 6.62 nM | 60 nM | 570 nM | 62 nM | 370 nM | 1000 nM | 0.01 nM | 59 nM | 23 nM | 127 nM | 56 nM | 59 nM | 4 nM | 75 nM | 9 nM |  |
| CC(/C=C/C=C(\C)c1cc(C(C)(C)C)cc(C(C)(C)C)c1)=C\C(=O)O [Compound 9, (2E, 4E, 6E)-7-(3,5-Di-t-butylphenyl)-3-methylocta-2,4,6-trienoic acid] | 0.93 nM | 0.3 nM | 253 nM | 0.1 nM | 1.3 nM | 1000 nM | 0.1 nM |  | 1 nM | > 10000 nM | > 10000 nM | 1 nM | 270 nM | 2 nM | 496 nM | 4 nM |
